Experimental data reported in PMC7316778 (Nature Communications, 2020).
Several values for one entry are separate records, joined by “and”; a condition that tells them apart may be missing. Equal entries are not always repeated. Where two headings read alike, the source gives them in different places.

How the values were obtained:
[1] = target: MARK2 (Homo sapiens, UniProt Q7KZI7); assay: SelectScreen kinase assay
Experimental: (§1) Selectivity profiling assays were performed by the Invitrogen SelectScreen™ Services. […] The concentration of ATP was selected to be equal to the KM, unless indicated otherwise.

[2] = target: SPHK2 (Homo sapiens, UniProt Q9NRA0); assay: SelectScreen kinase assay
Chain of SPHK2 (Q9NRA0 whole entry): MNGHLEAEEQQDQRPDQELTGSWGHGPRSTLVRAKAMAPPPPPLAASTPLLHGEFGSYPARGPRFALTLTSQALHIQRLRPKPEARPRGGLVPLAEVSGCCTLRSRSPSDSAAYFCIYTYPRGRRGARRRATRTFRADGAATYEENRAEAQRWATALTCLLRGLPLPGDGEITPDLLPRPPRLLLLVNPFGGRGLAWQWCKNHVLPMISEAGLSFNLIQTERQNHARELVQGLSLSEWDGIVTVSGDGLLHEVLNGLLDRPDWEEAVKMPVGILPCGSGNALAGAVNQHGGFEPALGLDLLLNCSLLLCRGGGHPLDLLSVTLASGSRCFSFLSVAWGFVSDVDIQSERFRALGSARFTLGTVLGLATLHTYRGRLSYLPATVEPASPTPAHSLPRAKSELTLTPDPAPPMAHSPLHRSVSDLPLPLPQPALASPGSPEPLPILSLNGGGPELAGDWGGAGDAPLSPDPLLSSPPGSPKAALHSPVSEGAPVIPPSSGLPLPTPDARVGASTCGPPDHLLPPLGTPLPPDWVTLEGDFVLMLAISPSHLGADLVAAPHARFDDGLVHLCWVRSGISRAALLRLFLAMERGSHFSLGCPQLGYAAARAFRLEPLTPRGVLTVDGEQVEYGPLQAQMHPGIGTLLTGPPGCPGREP
Experimental: as §1

[3] = target: IKBKE (IKK epsilon) (Homo sapiens, UniProt Q14164); assay: SelectScreen kinase assay; details: 1 h, 1 μM WEL028, 1 h preincubation
Experimental: as §1

[4] = tested on: FES^S700C HL-60 cells; assay: Proliferation ratio during neutrophil differentiation; format: cell-based, human; details: 100 nM; Supplementary Figure 12d; individual replicates; listed as WEL028
[5] = target: PAK6 (Homo sapiens, UniProt Q9NQU5); assay: SelectScreen kinase assay; details: 1 h, 1 μM WEL028, 1 h preincubation
Experimental: as §1

[6] = target: T1, CDKL5 (Homo sapiens, UniProt O76039); assay: SelectScreen kinase assay
T1 sequence (O76039 1-960): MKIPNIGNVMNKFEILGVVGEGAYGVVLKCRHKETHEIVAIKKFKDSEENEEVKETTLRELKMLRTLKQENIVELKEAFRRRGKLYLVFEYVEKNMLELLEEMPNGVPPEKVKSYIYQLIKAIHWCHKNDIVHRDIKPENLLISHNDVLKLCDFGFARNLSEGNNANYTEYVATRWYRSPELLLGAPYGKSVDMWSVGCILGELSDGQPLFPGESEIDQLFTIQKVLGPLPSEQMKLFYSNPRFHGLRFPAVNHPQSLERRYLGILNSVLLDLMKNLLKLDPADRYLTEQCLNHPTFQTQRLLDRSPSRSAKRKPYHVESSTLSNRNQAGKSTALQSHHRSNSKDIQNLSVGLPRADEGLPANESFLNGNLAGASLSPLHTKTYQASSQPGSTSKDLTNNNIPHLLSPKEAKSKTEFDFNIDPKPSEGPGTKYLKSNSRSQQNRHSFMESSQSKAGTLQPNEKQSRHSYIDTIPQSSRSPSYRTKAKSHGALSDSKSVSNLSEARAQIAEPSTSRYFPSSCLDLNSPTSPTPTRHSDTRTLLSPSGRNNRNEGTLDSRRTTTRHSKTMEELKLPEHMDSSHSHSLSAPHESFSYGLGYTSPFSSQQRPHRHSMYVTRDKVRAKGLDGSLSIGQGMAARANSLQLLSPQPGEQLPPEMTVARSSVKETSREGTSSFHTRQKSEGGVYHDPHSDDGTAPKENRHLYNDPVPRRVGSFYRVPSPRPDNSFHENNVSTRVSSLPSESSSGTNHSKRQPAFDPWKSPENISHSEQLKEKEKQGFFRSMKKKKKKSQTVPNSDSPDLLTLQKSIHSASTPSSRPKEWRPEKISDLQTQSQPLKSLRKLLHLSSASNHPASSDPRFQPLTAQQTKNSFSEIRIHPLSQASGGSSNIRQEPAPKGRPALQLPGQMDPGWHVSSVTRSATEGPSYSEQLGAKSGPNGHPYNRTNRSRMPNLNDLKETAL
Experimental: as §1

[7] = target: MAPK8 (JNK1) (Homo sapiens, UniProt P45983); assay: SelectScreen kinase assay
Experimental: as §1

[8] = target: CAMK2D (CaMKII delta) (Homo sapiens, UniProt Q13557); assay: SelectScreen kinase assay
Experimental: as §1

[9] = target: TNIK (Homo sapiens, UniProt Q9UKE5); assay: SelectScreen kinase assay
Chain of TNIK (Q9UKE5 whole entry): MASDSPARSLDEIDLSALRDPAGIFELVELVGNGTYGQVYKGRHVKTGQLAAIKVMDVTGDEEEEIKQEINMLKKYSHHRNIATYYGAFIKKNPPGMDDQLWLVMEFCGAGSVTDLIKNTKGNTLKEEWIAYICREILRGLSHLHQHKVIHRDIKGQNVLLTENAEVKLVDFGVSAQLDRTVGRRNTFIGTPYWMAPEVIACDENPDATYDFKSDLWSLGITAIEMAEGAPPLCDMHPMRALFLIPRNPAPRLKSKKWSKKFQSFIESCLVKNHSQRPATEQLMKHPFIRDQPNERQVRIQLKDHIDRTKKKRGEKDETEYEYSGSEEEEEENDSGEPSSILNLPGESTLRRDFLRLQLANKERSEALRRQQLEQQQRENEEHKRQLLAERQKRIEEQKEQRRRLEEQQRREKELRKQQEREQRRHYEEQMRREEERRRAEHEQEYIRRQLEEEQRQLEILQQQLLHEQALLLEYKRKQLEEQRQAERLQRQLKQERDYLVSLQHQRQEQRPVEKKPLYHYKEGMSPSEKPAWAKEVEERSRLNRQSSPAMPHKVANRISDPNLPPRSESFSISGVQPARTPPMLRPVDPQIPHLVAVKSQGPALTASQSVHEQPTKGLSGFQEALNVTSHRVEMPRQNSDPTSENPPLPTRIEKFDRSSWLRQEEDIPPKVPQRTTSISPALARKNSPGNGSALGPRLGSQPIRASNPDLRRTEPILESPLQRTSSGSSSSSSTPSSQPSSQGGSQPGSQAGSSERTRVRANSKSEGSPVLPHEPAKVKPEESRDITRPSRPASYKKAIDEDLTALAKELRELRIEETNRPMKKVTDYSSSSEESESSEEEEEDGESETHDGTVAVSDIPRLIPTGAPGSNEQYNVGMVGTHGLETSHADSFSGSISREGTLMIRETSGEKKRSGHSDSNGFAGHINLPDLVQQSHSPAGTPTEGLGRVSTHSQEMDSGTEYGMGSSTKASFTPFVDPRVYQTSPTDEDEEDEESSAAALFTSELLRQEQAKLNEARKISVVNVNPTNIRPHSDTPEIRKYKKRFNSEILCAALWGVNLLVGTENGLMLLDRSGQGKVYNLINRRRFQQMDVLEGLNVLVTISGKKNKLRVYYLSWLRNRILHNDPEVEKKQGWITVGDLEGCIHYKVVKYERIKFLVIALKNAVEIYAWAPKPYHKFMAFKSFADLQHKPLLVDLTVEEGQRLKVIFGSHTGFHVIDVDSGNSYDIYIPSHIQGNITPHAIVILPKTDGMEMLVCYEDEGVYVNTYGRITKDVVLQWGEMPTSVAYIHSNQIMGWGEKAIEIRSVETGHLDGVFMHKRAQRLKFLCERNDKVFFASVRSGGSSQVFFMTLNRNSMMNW
Experimental: as §1

[10] = target: PTK2B (FAK2) (Homo sapiens, UniProt Q14289); assay: SelectScreen kinase assay
Chain of PTK2B (FAK2) (Q14289 whole entry): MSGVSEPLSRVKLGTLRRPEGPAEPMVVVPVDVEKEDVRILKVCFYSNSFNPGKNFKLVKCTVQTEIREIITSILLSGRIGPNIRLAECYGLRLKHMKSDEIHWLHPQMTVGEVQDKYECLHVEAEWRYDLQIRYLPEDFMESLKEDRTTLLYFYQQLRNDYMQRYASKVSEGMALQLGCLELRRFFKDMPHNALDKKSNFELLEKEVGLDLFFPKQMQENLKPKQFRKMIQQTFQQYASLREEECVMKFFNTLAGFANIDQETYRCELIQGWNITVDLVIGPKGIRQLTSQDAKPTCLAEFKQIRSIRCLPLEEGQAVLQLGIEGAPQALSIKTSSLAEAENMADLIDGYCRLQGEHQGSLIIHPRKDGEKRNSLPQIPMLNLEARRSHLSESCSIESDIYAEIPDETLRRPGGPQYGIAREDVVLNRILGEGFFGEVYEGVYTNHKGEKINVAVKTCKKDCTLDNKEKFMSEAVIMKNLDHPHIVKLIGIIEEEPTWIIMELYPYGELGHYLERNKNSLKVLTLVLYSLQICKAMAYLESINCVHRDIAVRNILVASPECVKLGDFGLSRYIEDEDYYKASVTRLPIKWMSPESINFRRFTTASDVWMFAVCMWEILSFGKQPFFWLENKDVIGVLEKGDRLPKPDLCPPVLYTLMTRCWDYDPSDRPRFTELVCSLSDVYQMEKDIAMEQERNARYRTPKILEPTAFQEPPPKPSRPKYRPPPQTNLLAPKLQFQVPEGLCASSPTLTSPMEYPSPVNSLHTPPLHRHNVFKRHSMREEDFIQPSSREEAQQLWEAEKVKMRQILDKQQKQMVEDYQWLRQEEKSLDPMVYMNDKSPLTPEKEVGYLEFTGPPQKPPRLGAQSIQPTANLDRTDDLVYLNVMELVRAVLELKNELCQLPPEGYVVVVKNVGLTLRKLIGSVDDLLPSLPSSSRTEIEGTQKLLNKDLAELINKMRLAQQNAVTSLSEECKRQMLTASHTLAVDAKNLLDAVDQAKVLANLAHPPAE
Experimental: as §1

[11] = target: FRK (PTK5) (Homo sapiens, UniProt P42685); assay: SelectScreen kinase assay; details: for Inhibition at 1 µM (%): FRK (PTK5), ZLYTE, ATP Km app
Experimental: as §1

[12] = target: RPS6KA5 (MSK1) (Homo sapiens, UniProt O75582); assay: SelectScreen kinase assay
Experimental: as §1

[13] = target: endogenous FES^S700C (Homo sapiens, UniProt P07332, S700C); assay: In situ target engagement in live HL-60 macrophages (WEL033 post-labeling); format: cell-based; design: endogenous in cells; host or cells: HL-60 FES^S700C clone, differentiated to macrophages or neutrophils; details: for Relative FES labeling (%) Mean: Supplementary Figure 13b
Excerpt: and harvested. […] Band intensities were
Values represent means of fold enrichment (n

[14] = target: PI4KB (PI4K beta) (Homo sapiens, UniProt Q9UBF8); assay: SelectScreen kinase assay
Chain of PI4KB (PI4K beta) (Q9UBF8 whole entry): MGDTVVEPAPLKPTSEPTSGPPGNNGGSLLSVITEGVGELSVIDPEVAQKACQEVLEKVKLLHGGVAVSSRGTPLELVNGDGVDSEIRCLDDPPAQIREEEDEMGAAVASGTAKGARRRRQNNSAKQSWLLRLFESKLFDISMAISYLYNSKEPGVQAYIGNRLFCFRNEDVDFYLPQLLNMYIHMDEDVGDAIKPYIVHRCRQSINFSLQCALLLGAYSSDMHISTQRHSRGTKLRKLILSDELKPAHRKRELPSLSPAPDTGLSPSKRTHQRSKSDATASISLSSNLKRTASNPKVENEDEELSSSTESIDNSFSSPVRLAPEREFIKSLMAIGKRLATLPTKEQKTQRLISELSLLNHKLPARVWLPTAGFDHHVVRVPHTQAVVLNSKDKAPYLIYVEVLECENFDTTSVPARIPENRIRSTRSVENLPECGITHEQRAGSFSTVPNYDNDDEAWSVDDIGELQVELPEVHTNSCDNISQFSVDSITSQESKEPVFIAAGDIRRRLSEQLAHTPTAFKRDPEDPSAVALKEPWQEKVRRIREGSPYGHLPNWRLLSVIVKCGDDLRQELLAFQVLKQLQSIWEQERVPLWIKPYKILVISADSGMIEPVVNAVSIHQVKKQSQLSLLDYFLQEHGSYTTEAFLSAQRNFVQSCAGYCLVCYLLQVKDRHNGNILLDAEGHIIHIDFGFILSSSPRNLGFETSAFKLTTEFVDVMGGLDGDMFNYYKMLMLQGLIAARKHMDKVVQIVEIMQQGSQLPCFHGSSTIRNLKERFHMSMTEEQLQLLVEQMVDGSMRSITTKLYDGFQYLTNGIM
Experimental: as §1

[15] = target: SBK1 (Homo sapiens, UniProt Q52WX2); assay: SelectScreen kinase assay
Chain of SBK1 (Q52WX2 whole entry): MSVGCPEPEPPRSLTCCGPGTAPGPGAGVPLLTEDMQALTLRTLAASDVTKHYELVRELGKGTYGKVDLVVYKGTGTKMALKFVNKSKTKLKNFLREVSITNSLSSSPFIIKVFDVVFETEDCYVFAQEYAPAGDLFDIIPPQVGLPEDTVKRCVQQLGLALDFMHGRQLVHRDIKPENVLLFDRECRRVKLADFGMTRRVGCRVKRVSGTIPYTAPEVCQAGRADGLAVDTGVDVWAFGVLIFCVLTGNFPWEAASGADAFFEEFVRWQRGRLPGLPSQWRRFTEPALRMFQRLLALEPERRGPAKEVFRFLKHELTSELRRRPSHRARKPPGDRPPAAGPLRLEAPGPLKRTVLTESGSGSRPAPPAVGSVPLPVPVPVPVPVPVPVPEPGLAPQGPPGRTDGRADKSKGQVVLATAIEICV
Experimental: as §1

[16] = 1 h, 1 μM WEL028, 1 h preincubation
[17] = 1 µM, ZLYTE, ATP Km app, listed as WEL028, 1 µM

Chain of MARK2 (Q7KZI7 whole entry): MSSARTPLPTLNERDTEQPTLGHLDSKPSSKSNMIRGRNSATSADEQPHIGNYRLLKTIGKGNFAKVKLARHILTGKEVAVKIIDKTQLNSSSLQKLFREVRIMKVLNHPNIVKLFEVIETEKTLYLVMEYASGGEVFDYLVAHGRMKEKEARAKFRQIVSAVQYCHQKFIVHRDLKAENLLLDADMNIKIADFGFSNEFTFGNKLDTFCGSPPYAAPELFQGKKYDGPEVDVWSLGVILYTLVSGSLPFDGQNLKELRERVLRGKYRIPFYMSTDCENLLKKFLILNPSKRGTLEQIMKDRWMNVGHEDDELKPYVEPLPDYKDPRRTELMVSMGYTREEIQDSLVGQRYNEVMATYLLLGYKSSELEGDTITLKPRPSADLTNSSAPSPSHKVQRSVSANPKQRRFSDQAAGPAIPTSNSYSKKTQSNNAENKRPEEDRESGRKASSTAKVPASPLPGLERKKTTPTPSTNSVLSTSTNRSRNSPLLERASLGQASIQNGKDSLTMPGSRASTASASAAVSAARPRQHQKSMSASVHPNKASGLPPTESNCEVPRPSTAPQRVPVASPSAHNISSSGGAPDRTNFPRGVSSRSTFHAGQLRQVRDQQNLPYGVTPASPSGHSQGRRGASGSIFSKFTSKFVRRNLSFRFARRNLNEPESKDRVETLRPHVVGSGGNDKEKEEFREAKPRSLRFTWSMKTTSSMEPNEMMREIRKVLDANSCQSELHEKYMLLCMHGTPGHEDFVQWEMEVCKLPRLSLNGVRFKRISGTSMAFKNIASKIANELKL

C#CCOc1ccc(Nc2ncc(Cl)c(Nc3ccccc3NC(=O)C=C)n2)c(OC)c1 [Compound 6]
inhibition at 1 µM [1, 16]: 8%
Inhibition at 1 µM (%) ([1]; MARK2, 1 µM, ZLYTE, ATP Km app, listed as WEL028, 1 µM): 9%
inhibition at 1 µM ([1]; read-out: Inhibition at 1 µM (%), MARK2, 1 µM, ZLYTE, ATP Km app): 6%
Inhibition at 1 µM (%) ([2]; 1 µM, Adapta, ATP 10, listed as WEL028, 1 µM): 5% and 1%
inhibition at 1 µM [2, 16]: 3%
inhibition at 1 µM [3]: 2%
Proliferation ratio [4]: 1.625 and 1.925 and 1.9
inhibition at 1 µM [5]: -7%
inhibition at 1 µM [6, 16]: 8%
Inhibition at 1 µM (%) ([6]; CDKL5, 1 µM, ZLYTE, ATP Km app, listed as WEL028, 1 µM): 9%
inhibition at 1 µM ([6]; read-out: Inhibition at 1 µM (%), CDKL5, 1 µM, ZLYTE, ATP Km app): 7%
Inhibition (%) ([7]; 1 μM WEL028, 1 h preincubation): 16%
Inhibition at 1 µM (%) ([7]; MAPK8 (JNK1), 1 µM, ZLYTE, ATP 100, listed as WEL028, 1 µM): 22%
inhibition at 1 µM ([7]; read-out: Inhibition at 1 µM (%), MAPK8 (JNK1), 1 µM, ZLYTE, ATP 100): 11%
inhibition at 1 µM [8, 16]: 8%
Inhibition at 1 µM (%) ([8]; CAMK2D (CaMKII delta), 1 µM, ZLYTE, ATP Km app): 15%
Inhibition at 1 µM (%) ([9]; 1 µM, LanthaScreen Binding, listed as WEL028, 1 µM): 4%
inhibition at 1 µM [9, 16]: 5%
inhibition at 1 µM ([9]; read-out: Inhibition at 1 µM (%), 1 µM, LanthaScreen Binding): 6%
Inhibition at 1 µM (%) [10, 17]: 37%
inhibition at 1 µM [10, 16]: 34%
inhibition at 1 µM ([10]; read-out: Inhibition at 1 µM (%), 1 µM, ZLYTE, ATP Km app): 32%
inhibition at 1 µM [11, 16]: 7%
Inhibition at 1 µM (%) [11]: 11%
Inhibition at 1 µM (%) ([11]; listed as WEL028, 1 µM): 4%
Inhibition at 1 µM (%) ([12]; 1 µM, ZLYTE, ATP Km app): -13%
inhibition at 1 µM [12, 16]: -7%
IC50 ([13]; live FES^S700C HL-60 macrophages, 1 h, WEL033 1 µM post-labeling, n = 3, read-out: pIC50, relative FES labeling (converted)): 3.98 nM
Relative FES labeling (%) Mean ([13]; log[WEL028] (M) -6): 6.696%
Relative FES labeling (%) Mean ([13]; log[WEL028] (M) -7): 2.482%
Relative FES labeling (%) Mean ([13]; log[WEL028] (M) -7.52288): 5.093%
Relative FES labeling (%) Mean ([13]; log[WEL028] (M) -8): 18.898%
Relative FES labeling (%) Mean ([13]; log[WEL028] (M) -8.52288): 58.4122%
Relative FES labeling (%) Mean ([13]; log[WEL028] (M) -9): 92.5647%
inhibition at 1 µM [14, 16]: 34%
Inhibition at 1 µM (%) ([14]; PI4KB (PI4K beta), 1 µM, Adapta, ATP Km app, listed as WEL028, 1 µM): 37%
inhibition at 1 µM ([14]; read-out: Inhibition at 1 µM (%), PI4KB (PI4K beta), 1 µM, Adapta, ATP Km app): 30%
Inhibition at 1 µM (%) [15, 17]: 1% and 8%
inhibition at 1 µM [15, 16]: 5%
